Reference: patent US20110072525A1, “COMPOSITIONS AND METHODS FOR THE TREATMENT OF PSYCHIATRIC AND NEUROLOGICAL DISORDERS” (priority 2009, published 2011)

Test system: wild type C57BL6 mice
Experiment: Prepulse inhibition (PPI) of the acoustic startle response, control experiment
Type: in vivo
Conditions: wild type C57BL6 mice injected with MK-801 1 mg/kg; same PPI protocol; data not shown
Experimental: Prepulse inhibition (PPI) of the acoustic startle response. Prepulse inhibition (PPI) of the acoustic startle response was measured as described previously with some minor modifications (E. S. Emamian et al., 2004b). Adult homozygous mutant mice and their wild-type littermates were housed individually for 2 weeks prior to testing. Testing was conducted in a SR-Lab system (San Diego Instruments). Response amplitude was calculated as the maximum response level occurred during the 100 ms recording. Because animals can habituate to the prepulse, and to the startle stimulus, the number of trials was kept to minimum. Immediately after being placed in the chamber, the animal was allowed to acclimate for 5 min which background noise (86 dB) continually present. The animal then received 10 sets of the following 5 types of trials, distributed pseudo-randomly, and separated by 15 sec inter-trial intervals: Trial 1: 40 ms, 120 dB noise burst alone; Trial 2-4: 120 dB startle stimuli preceded 100 ms by one of the three 20 ms prepulses: 90 dB, 94 dB or 98 dB; Trial 5: no-stimulus/background noise alone (86 dB). […] Data was analyzed using ANOVA with repeated measures.

C[C@]12N[C@H](Cc3ccccc31)c1ccccc12 [MK-801] was tested, and the “Prepulse inhibition (PPI) of the acoustic startle response” value was “significant decrease in PPI”.
